These results are taken from US20120065199A1, “SUBSTITUTED QUINOLINES FOR USE AS VEGF INHIBITORS” (CLANOTECH AB, priority 2009, published 2012).

Bounds are passed on as bounds.

The test system of assay [1] is PAE cells expressing VEGFR2. Put plainly: Chemotaxis assay (modified Boyden chamber), PAE/VEGFR-2 toward VEGF-A. Format: cell-based, porcine. The settings on record: VEGF-A as chemo-attractant, absence of serum; for inhibition at 10 µM: Sus scrofa, PAE, 10 μM compound, read-out: Chemotaxis: VEGFR-2 inhibition of cell migration (%) at 10 μM compound concentration. As for the experimental part: (§1) Additionally, the effect of the compounds was tested in this capacity of influencing chemotaxis. The test compounds were tested in porcine aorta endothelial (PAE) cells expressing VEGFR2 and VEGFR3 (PAE/VEGFR-2 and PAE/VEGFR-3). The method used is a modified Boyden chamber assay. The migration of the PAE cells expressing VEGFR2 and VEGFR3 receptors toward VEGF-A and VEGF-C respectively used as chemo-attractant was studied through micropore polycarbonate filter and was scored in the absence of serum. The assay was performed in the presence of compounds at 10 μM.
(§2) In Table 1, data from both the cell shape assay and the chemotaxis assay are shown. Thus, under “Cell Shape: PAE/VEGFR-2 with VEGF antagonist conc. (μM)” and “Cell Shape: PAE/VEGFR-3 with VEGF antagonist conc. (μM)” the concentration of the indicated inventive compound that gave restitution of cell morphology in the cell shape assay is shown. Data under “Chemotaxis: VEGFR-2% inhibition of cell migration” and “Chemotaxis: VEGFR-3% inhibition of cell migration” show the percentage inhibition of PAE cells expressing VEGFR-2 or 3 in the presence of 10 μM of the indicated inventive compound.

In assay [2] the test system is T241 wt mouse fibrosarcoma tumor cells. Put plainly: Tumor synograft model. Format: in vivo, C57B1 mice. The settings on record: oral administration 25 mg/kg/day for 10 days, subcutaneous T241 tumors in mice, compared with vehicle. As for the experimental part:
FIG. 1 is a plot of the tumor volume (mL) in mice having received subcutaneously implanted T241 wt mouse fibrosarcoma tumor cells, as a function of days of therapy by oral administration at 25 mg/kg/day of the compound of Example 1 of the invention. This is compared to administration of vehicle only.
Female 6-week-old C57B1 mice were used for tumor studies. […] T241 wt mouse fibrosarcoma tumor cells growing in logarithmic phase were harvested and resuspended in media, and a single cell solution in a volume of 100 μL was implanted subcutaneously at the right flank of each animal. 6 Mice were used in the treated groups and 6 mice were used in the control groups. Systemic treatment by oral administration injections with either 50 μl of vehicle or the inventive compound (the compound of Example 1) (25 mg/kg/day) was begun at day at day 0 (zero). The inventive compound was administrated for 10 days. Visible tumors were present day 5-10 after implantation. Primary tumors were measured with digital calipers on the days indicated. Tumor volumes were calculated according to the formula: Length×width^2×0.52 as reported. […] It takes a significant number of days for the treated animals to reach the same tumor volume as the vehicle treated animals.

The next assay concerns PAE/VEGFR-2 cells. Put plainly: Cell shape assay, PAE/VEGFR-2 cells with VEGF-A. The format is cell-based, porcine. As for the experimental part: (§3) One of the used assays comprised a culture of PAE/VEGFR-2 and PAE/VEGFR3 cells. Morphological changes of the cells were recorded microscopically after addition of VEGF-A and VEGF-C respectively, followed by the test compound at a final concentration up to 100 μM. Growth inhibitions of the PAE/VEGFR-2 cells were detected in the presence of the compound of Example 1 according to the invention at 10 μM or lower. Furthermore, the inventive compounds were tested in PAE/VEGFR-3 cells and morphological changes of the cells were recorded microscopically after addition of the VEGF-C, followed by the test compound at a final concentration up to 100 μM. Growth inhibitions of the PAE/VEGFR-3 cells were detected in the presence of several of Examples according to the invention. The compounds were tested at 10, 50 and 100 μM. The effect of the test compounds in Table 1 is expressed as concentration of compound that inhibits the cell morphology induced by VEGF A and VEGF C. No effect means that no morphological changes were seen up to 100 μM compound concentrations.
as §2

For assay [3], the system named is PAE cells expressing VEGFR3. Put plainly: Chemotaxis assay (modified Boyden chamber), PAE/VEGFR-3 toward VEGF-C. The format is cell-based, porcine. Particulars: Sus scrofa, 10 μM compound, VEGF-C as chemo-attractant, absence of serum, read-out: Chemotaxis: VEGFR-3 inhibition of cell migration (%) at 10 μM compound concentration. As for the experimental part: as §1, §2

The subject of another assay is PAE/VEGFR-3 cells. Put plainly: Cell shape assay, PAE/VEGFR-3 cells with VEGF-C. The format is cell-based, porcine. Particulars: Sus scrofa; VEGF-C induced cell morphology; tested at 10, 50 and 100 μM; No effect = no morphological changes up to 100 μM; read-out: Cell Shape: PAE/VEGFR-3 with VEGF antagonist conc. (μM) that gives inhibition. As for the experimental part:
as §3, §2

Where [4] appears, read: VEGF-A induced cell morphology, tested at 10, 50 and 100 μM, No effect = no morphological changes up to 100 μM.

As to `CNC(=O)c1ccc2ncc(C(=O)OCn3ccnc3)c(Nc3ccc(OC)cc3)c2c1` [Example 1, (1H-imidazol-1-yl)methyl 4-(4-methoxyphenylamino)-6-(methylcarbamoyl)-quinoline-3-carboxylate], the figures for the inhibition at 10 µM in assay [1] and in assay [3] were 52% and 53%, respectively. Besides, the “Tumor volume, effectiveness in the animal model (FIG. 1)” value in assay [2] was “convincing results for its effectiveness”. The minimal effective concentration in the assay on PAE/VEGFR-2 cells (Sus scrofa, VEGF-A induced cell morphology, tested at 10, 50 and 100 μM, No effect = no morphological changes up to 100 μM, read-out: Cell Shape: PAE/VEGFR-2 with VEGF antagonist conc. (μM) that gives inhibition) was determined as 10 µM. Moreover, in the assay on PAE/VEGFR-2 cells (after addition of VEGF-A, final concentration up to 100 μM), the “Concentration at which growth inhibitions of the PAE/VEGFR-2 cells were detected” value was no more than 10 µM.

`CNC(=O)c1ccc2ncc(C(=O)OCCN(C)C)c(Nc3ccc(OC)cc3)c2c1` [Example 4, 2-(dimethylamino)ethyl 4-(4-methoxyphenylamino)-6-(methylcarbamoyl)-quinoline-3-carboxylate]: the inhibition at 10 µM in assay [1] was 21%; in assay [3], 63%. Moreover, the minimal effective concentration in the assay with PAE/VEGFR-3 cells came to 100 µM. In addition, in the assay on PAE/VEGFR-2 cells (setting [4]), the “Cell Shape: PAE/VEGFR-2 with VEGF antagonist conc. (μM) that gives inhibition” value is on record as “No effect”.

In the case of `CNC(=O)c1ccc2ncc(C(=O)OCCn3ccnc3)c(Nc3ccc(OC)cc3)c2c1` [Example 10, 2-Imidazol-1-ylethyl 4-[(4-methoxyphenyl)amino]-6-(methylcarbamoyl)-quinoline-3-carboxylate], the inhibition at 10 µM in assay [1] was found to be 32%; in assay [3], 53%. For the same molecule, in the assay with PAE/VEGFR-3 cells, the minimal effective concentration came to 10 µM. The “Cell Shape: PAE/VEGFR-2 with VEGF antagonist conc. (μM) that gives inhibition” value in the assay on PAE/VEGFR-2 cells (setting [4]) is “No effect”.

For the molecule `CNC(=O)c1ccc2ncc(C(=O)OCCN3CCOCC3)c(Nc3ccc(F)cc3)c2c1` [Example 15, 2-Morpholinoethyl 4-[(4-fluorophenyl)amino]-6-(methylcarbamoyl)quinoline-3-carboxylate], the inhibition at 10 µM is 31% in assay [1] and 59% in assay [3]. In the assay with PAE/VEGFR-3 cells, the minimal effective concentration came out at 100 µM. Further, the “Cell Shape: PAE/VEGFR-2 with VEGF antagonist conc. (μM) that gives inhibition” value with PAE/VEGFR-2 cells (setting [4]) was “No effect”.

Take `CNC(=O)c1ccc2ncc(C(=O)OC(C)C(=O)OC)c(Nc3ccc(OC)cc3)c2c1` (centres unmarked) [Example 6, (2-Methoxy-1-methyl-2-oxo-ethyl) 4-[(4-methoxyphenyl)amino]-6-(methylcarbamoyl)quinoline-3-carboxylate]: the values for the inhibition at 10 µM in assay [1] and in assay [3] were 23% and 69%, respectively. For the same molecule, the minimal effective concentration in the assay with PAE/VEGFR-3 cells was determined as 50 µM. Moreover, the “Cell Shape: PAE/VEGFR-2 with VEGF antagonist conc. (μM) that gives inhibition” value with PAE/VEGFR-2 cells (setting [4]) is listed as “No effect”.

`CNC(=O)c1ccc2ncc(C(=O)OCOC(C)=O)c(Nc3ccc(OC)cc3)c2c1` [Example 7, Acetoxymethyl 4-[(4-methoxyphenyl)amino]-6-(methylcarbamoyl)quinoline-3-carboxylate]: the “Chemotaxis: VEGFR-2 inhibition of cell migration (%) at 10 μM compound concentration” value in assay [1] is on record as “No effect”. Also, the minimal effective concentration in the assay with PAE/VEGFR-3 cells was 50 µM. In the assay on PAE/VEGFR-2 cells (setting [4]), the “Cell Shape: PAE/VEGFR-2 with VEGF antagonist conc. (μM) that gives inhibition” value was “No effect”. For the same molecule, the inhibition at 10 µM in assay [3] was 25%.

For the molecule `CNC(=O)c1ccc2ncc(C(=O)OCn3ccnc3)c(Nc3ccc(F)cc3)c2c1` [Example 14, 4-(4-Fluoro-phenylamino)-6-methylcarbamoyl-quinoline-3-carboxylic acid imidazol-1-yl-methylester], the “Chemotaxis: VEGFR-2 inhibition of cell migration (%) at 10 μM compound concentration” value in assay [1] is “No effect”. Moreover, in the assay on PAE/VEGFR-3 cells, the minimal effective concentration stood at 50 µM. Also, the “Cell Shape: PAE/VEGFR-2 with VEGF antagonist conc. (μM) that gives inhibition” value in the assay on PAE/VEGFR-2 cells (setting [4]) is listed as “No effect”. Further, in assay [3], the inhibition at 10 µM stood at 30%.
